What all share (type): cell-based
In series [1] the test system is ROS generation in PC-3 cells. Description: ROS generation, PC-3 cells. Conditions: 0–30 min; Fig. S5A. How it is done:
(§1) Intracellular ROS levels were evaluated using the fluorescent probe 5-(and-6)-chloromethyl-2′,7′-dichlorodihydrofluorescein diacetate (CM-H2DCFDA) (Invitrogen). After treatments with Peptide A-8R, C81 cells were loaded with 20 µM CM-H2DCFDA and incubated at 37°C for 30 min in the dark. Cells were then washed with PBS and fluorescence was measured at the excitation and emission wavelengths of 490 and 535 nm, respectively, using a multi-well fluorescence plate reader. For NAC (N-acetyl cysteine) (Sigma) rescue experiment, cells were pretreated with 1 or 5 mM NAC for 2 hours before adding Peptide A-8R.
Supplementary file pone.0064189.s005.tif: Figure S5 ROS generation is not induced by Peptide A-8R in PC-3 cells and Peptide C-8R in LNCaP cells. (A) PC-3 cells were treated with Vehicle or different concentrations of Peptide A-8R or Peptide C-8R, as shown, or (B) LNCaP cells were treated with Vehicle or different concentrations of Peptide A-8R or Peptide C-8R, or H2O2 and monitored for ROS generation after 0–30 (A) or 30 (B) min. (C) LNCaP cells were treated with Vehicle, Peptide C-8R (10 µM), Peptide A-8R (10 µM), or Etoposide (100 µM) for 0–8 hrs and subjected to a Caspase assay to measure apoptosis. Bar graphs represent averages of three independent experiments plus standard deviations. (C) All activities are relative to the first condition, and this activity was set to either 1. […]

In series [2] the test system is LNCaP cells. In words: Proliferation of LNCaP cells without or with R1881 (MTT). Conditions: 2% serum without or with 1 nM R1881; 50 µM peptide; day 6; Fig. 3A; averages of three independent experiments; P<0.03 vs Vehicle. The protocol: (§2) For proliferation, cells were grown in medium containing 2% FBS extracted with dextran-coated charcoal (DCC). 48 hours later, ethanol or 1 nM R1881 was added to the cells followed by peptide treatment. The MTT assay (Sigma) was used as before to determine cell number. For apoptosis, 5000 cells were seeded in 96-well plates and treated with Vehicle (DMSO), Peptide A-8R (25 µM), Etoposide (50 µM) (Sigma) at different time points. The Caspase (3/7) activity was measured using Apo-ONE Homogeneous Caspase-3/7 assay kit (Promega). PARP cleavage was also used to measure apoptosis, and is described below.
Vehicle or different concentrations of Peptide A-8R or C-8R, as shown, was added to (A) hormone-dependent LNCaP cells grown in 2% serum without or with 1 nM R1881, (C) castration-resistant C81 or CWR-22Rv1 cells, or (E) sGCα1-deficient PC-3 or Cos cells. Cell number was measured after various days of incubation. Data points represent averages of three independent experiments plus standard deviations. Asterisks indicate statistical significance (P<0.03) of Peptide A activity, relative to Vehicle. Western blotting was used to monitor expression of endogenous sGCα1 in (B) C81 and CWR-22Rv1 cells, treated without or with 1 nM R1881, or (E) PC-3 and Cos cells, as compared to LNCaP cells. Note that β-actin was used to control for protein loading.

Series [3] deals with CWR-22Rv1 cells. In words: Proliferation/cytotoxicity, castration-resistant CWR-22Rv1 cells (MTT). Conditions: different concentrations; Fig. 3C; averages of three independent experiments; P<0.03 vs Vehicle. How it is done:
LNCaP, C81, PC-3 and Cos cells were grown as previously described. CWR-22Rv1 cells were cultured in RMPI-1640 medium with 10% FBS and 50 µg/ml Gentamicin (Gibco). Control siRNA, sGCα1 siRNA and AKT siRNA (Dharmacon) at 50 nM final concentration was transfected into cells using Lipofectamine siMAX (Invitrogen).
as §2
Vehicle or different concentrations of Peptide A-8R or C-8R, as shown, was added to (A) hormone-dependent LNCaP cells grown in 2% serum without or with 1 nM R1881, (C) castration-resistant C81 or CWR-22Rv1 cells, or (E) sGCα1-deficient PC-3 or Cos cells. Cell number was measured after various days of incubation. Data points represent averages of three independent experiments plus standard deviations. […]

Series [4] concerns C81 cells. Description: NAC rescue of proliferation of Peptide A-8R-treated cells (MTT). The settings on record: 50 µM vs 10 and 25 µM. How it is done:
as §2, §1
Figure 4 Peptide A-8R kills prostate cancer cells by mediating ROS generation. (A) C81 cells were treated with Vehicle or different µMolar concentrations of Peptide A-8R and without or with 0–5 mM NAC and monitored for ROS generation after 0–30 min as measured by fluorescence intensity (FI). Bar graphs represent averages of three independent experiments plus standard deviations. Note that asterisks on bar graphs found with NAC are compared to equivalent data without NAC. (B) C81 cells were treated with Vehicle or different concentrations of Peptide A-8R, as shown, and 0–5 mM NAC, as shown, and monitored for cell number after 0–6 days of incubation as measured by MTT assay. Data points represent averages of three independent experiments plus standard deviations. Asterisks indicate statistical significance (P<0.04). (C) C81 cells were treated with Vehicle or different concentrations of Peptide A-8R, as shown, and with or without 5 mM NAC, as shown, and monitored DNA damage after 1 hr incubation as measured by Comet assay.

“Also recorded” adds a separate entry of the source. Where no end group is shown, it is not given here.

Take Ac-TFCKAFPFHIIRRRRRRRR [Peptide A-8R]: the “ROS generation, PC-3 cells” value in series [1] is reported as “do not respond; also recorded: not induced”. For the same substance, the “cytotoxic activity with or without androgen, LNCaP” value in series [2] is “same potent cytotoxic activity with or without androgen, causing all cells to perish by day 6 when treated with 50 µM peptide”. The “suppression of growth of CWR-22Rv1 cells” value in series [3] is recorded as “also effective on another hormone-refractory prostate cancer cell line, CWR-22Rv1 cells”. Besides, the “cytotoxicity at 50 µM relative to lower concentrations” value in series [4] is “strongest cytotoxic activity”.

These data come from PMC3664642, “A Peptide against Soluble Guanylyl Cyclase α1: A New Approach to Treating Prostate Cancer” (PLoS ONE, 2013).
